The values below are quoted from earlier work in patent publication US9345804B2, “S-nitrosothiol-generating skin dressings” (Insense Limited, priority 2007, dated 2016).

The conditions of data set [1]: under normal conditions.
For data set [2] the following is noted: at 25° C.

With nitrosoglycerol, the “time to almost complete decomposition” value in data set [1] is on record as “hours/days”. As usually defined, the pKa is the negative logarithm of the acid dissociation constant. Regarding `O=NO` [nitrite], the pKa in data set [2] is 3.4.
